Test results published in patent publication US9458203B2, “Integrin-blocking polypeptides and uses thereof” (priority 2011, dated 2016).
Like-named read-outs stand apart in the source and are kept apart here. Ends that are not written are not given here.

Assays:
[1] = test system: human prostate cancer DU-145; format: in vivo, nude mice; conditions: mouse, in vivo
Method: (§2) Taking a certain amount of vigorously growing tumor tissue, grinding the tumor tissue under sterile conditions and preparing cell suspension at the concentration of 1×10^7 cells/ml; then hypodermicaly inoculating 0.1 ml of the cell suspension into the right axillary region of nude mice. Keeping measuring the diameter of the transplanted tumor with a vernier caliper, and randomly dividing the mice into groups when the volume of the tumor reached 100-200 mm^3. […] Measuring the tumor diameter once every other day and recording the body weight of mice simultaneously. Intravenously injecting polypeptides to mice from test groups while administering equal quantity of physiological saline to mice from the negative control group. The total medication period was 14 days. Avastin was adopted to set up a positive control group; it was administered through the tail vein once every three days while all other drugs were administered through the tail vein once a day. Leaving mice for a one-week rest after 14 days' medication, then (21 days after medication) killing the mice, surgically dissecting the tumors and measuring the weight of tumors. The tumor volume (TV) was calculated in accordance with the following formula: TV=½×a×b^2

[2] = test system: human gallbladder cancer GBC-SD; assay: heterotransplanted human gallbladder cancer GBC-SD in nude mice; conditions: for final weight: daily, tail vein injection
Method: (§3) Taking a certain amount of vigorously growing tumor tissue, grinding the tumor tissue under sterile conditions and preparing cell suspension at the concentration of 1×10^7 cells/ml; then hypodermicaly inoculating 0.1 ml of the cell suspension into the right axillary region of nude mice. Keeping measuring the diameter of the transplanted tumor with a vernier caliper, and randomly dividing the mice into groups when the volume of the tumor reached 100-200 mm^3. Observing the dynamic effect of integrin-blocking polypeptides on inhibiting the growth of the tumor by means of documenting the change of tumor diameters. Measuring the tumor diameter once every other day and recording the body weight of mice simultaneously. Intravenously injecting polypeptides to mice from test groups while administering equal quantity of physiological saline to mice from the negative control group. The total medication period was 14 days. Avastin was adopted to set up a positive control group; it was administered through the tail vein once every three days while all other drugs were administered through the tail vein once a day. Leaving mice for a one-week rest after 14 days' medication, then (21 days after medication) killing the mice, surgically dissecting the tumors and measuring the weight of tumors. The tumor volume (TV) was calculated in accordance with the following formula: TV=½×a×b^2
(§4) Avastin used in the positive control group was administered once every 2 days through tail vein injection, while drugs of all other groups were administered on daily basis through tail vein injection.

[3] = test system: melanoma B16F10; assay: transplanted melanoma B16F10 in C57BL/6 black mice; conditions: mouse, in vivo
Method: Hypodermically injecting polypeptides and other drugs into the left axillary region of mice from the experimental groups respectively while administering only equal quantity of physiological saline to the mice from the negative control group. The total medication period was 14 days, during which cyclophosphamide was administered once every other day, taxol once every three days, low-dose polypeptide twice a day and all other drugs once a day.

[4] = test system: human lung cancer H460; conditions: mouse, in vivo
Method: as §3
(§5) Taxol used in the positive control group was administered once every 3 days through tail vein injection, while drugs of all other groups were administered on daily basis through tail vein injection.

[5] = test system: human testicular cancer 5637; format: in vivo, nude mice; conditions: mouse, in vivo
Excerpt: (§1) The total medication period was 14 days.

[6] = test system: sarcoma HT-1080; format: in vivo, nude mice; conditions: mouse, in vivo
Excerpt: as §1

[7] = format: in vivo, nude mice; conditions: mouse, in vivo
Excerpt: as §1

[8] = test system: human esophageal cancer Ec109; format: in vivo, nude mice; conditions: mouse, in vivo
Excerpt: as §1

[9] = test system: human gallbladder cancer GBC-SD; conditions: mouse, in vivo
Method: as §3, §4

[10] = test system: human thyroid cancer SW-579; format: in vivo, nude mice; conditions: mouse, in vivo
Method: as §2

[11] = test system: human liver cancer SMMC-7721; conditions: mouse, in vivo
Method: as §3, §5

[12] = test system: human rectal cancer Colo 320; conditions: mouse, in vivo
Method: as §3, §5

[13] = test system: human ovarian cancer SK-OV-3; format: in vivo, nude mice; conditions: mouse, in vivo
Method: as §2

[14] = test system: human breast cancer MDA-MB-231; assay: heterotransplanted human breast cancer MDA-MB-231 in nude mice; conditions: for final weight: tail vein once a day, 14 days
Method: as §3
(§6) wherein a, b refer to the length and width of the tumor respectively.
(§7) The relative tumor volume (RTV) can be calculated in accordance with the results of measurement, using the formula: RTV=Vt/V0, wherein V0 refers to the initial tumor volume measured on the date starting medication (namely d0) while Vt the tumor volume obtained through every measurement. The anti-tumor activity was evaluated by relative proliferation rate T/C (%), which was calculated in accordance with the following formula:
(§8) wherein TRTV refers to the RTV of experimental groups; CRTV refers to the RTV of the negative control group.

[15] = test system: human colon cancer HT-29; format: in vivo, nude mice; conditions: mouse, in vivo
Method: as §2

[16] = test system: human endometrial cancer HHUA; conditions: mouse, in vivo
Method: as §3, §5

[17] = test system: human pancreatic cancer SW-1990; assay: heterotransplanted human pancreatic cancer SW-1990 in nude mice; format: in vivo; conditions: for final weight: daily, tail vein injection
Excerpt: as §1

[18] = test system: human laryngeal cancer Hep-2; assay: heterotransplanted human laryngeal cancer Hep-2 in nude mice; format: in vivo
Excerpt: as §1

[19] = test system: human gastric cancer MGC-803; conditions: mouse, in vivo
Excerpt: (§9) Keeping measuring the diameter of the transplanted tumor with a vernier caliper, and randomly dividing the mice into groups when the volume of the tumor reached 100-200 mm^3. Observing the dynamic effect of integrin-blocking polypeptides on inhibiting the growth of the tumor by means of documenting the change of tumor diameters. Measuring the tumor diameter once every other day and recording the body weight of mice simultaneously. Intravenously injecting polypeptides to mice from test groups while administering equal quantity of physiological saline to mice from the negative control group. The total medication period was 14 days. Avastin was adopted to set up a positive control group; it was administered through the tail vein once every three days while all other drugs were administered through the tail vein once a day. Leaving mice for a one-week rest after 14 days' medication, then (21 days after medication) killing the mice, surgically dissecting the tumors and measuring the weight of tumors. The tumor volume (TV) was calculated in accordance with the following formula: TV=½×a×b^2

[20] = test system: human gastric cancer MGC-803; assay: heterotransplanted human gastric cancer MGC-803 in nude mice; conditions: for final weight: tail vein daily
Excerpt: as §9

[21] = test system: human brain tumor SF763; conditions: mouse, in vivo
Method: as §3, §5

[22] = test system: human bladder cancer HT1376; assay: heterotransplanted human bladder cancer HT1376 in nude mice; format: in vivo; conditions: for final weight: daily, tail vein injection
Excerpt: as §1

[23] = test system: human cervical cancer HeLa; format: in vivo, nude mice; conditions: mouse, in vivo
Method: as §2

[24] = test system: human breast cancer MDA-MB-231; conditions: mouse, in vivo
Method: as §3, §6, §7, §8

[25] = test system: human renal cancer A498; format: in vivo, nude mice; conditions: mouse, in vivo
Method: as §2

[26] = in contrast with the negative control group

FQPVLHLVALNSPLSGGMRGIRGADFQCFQQARAVGLAGTFRA [polypeptide I]
body weight of animals, in words [1]: no significant change in body weight
toxic and side effects, in words [1]: no obvious toxic and side effects
final weight ([2]; 0.75 mg/kg/time): 22.95 ± 0.46 g
final weight ([2]; 1.5 mg/kg/time): 23.04 ± 0.55 g
final weight ([2]; 3 mg/kg/time): 22.89 ± 0.51 g
body weight of animals, in words [2, 26]: no significant change in body weight
body weight of animals, in words [3]: no significant change
toxic and side effects, in words [3]: no significant toxic and side effects
body weight of animals, in words [4]: no significant change in body weight
toxic and side effects, in words [4]: no obvious toxic and side effects
toxic and side effects, in words [5]: no obvious toxic and side effects
body weight of animals, in words [6]: no significant change in body weight
toxic and side effects, in words [6]: no obvious toxic and side effects
final weight ([6]; 0.75 mg/kg): 22.99 ± 0.51 g
final weight ([6]; 1.5 mg/kg): 23.10 ± 0.64 g
final weight ([6]; 3 mg/kg): 23.13 ± 0.38 g
body weight of animals, in words [7]: no significant change in body weight
body weight of animals, in words [8]: no significant change in body weight
toxic and side effects, in words [8]: no obvious toxic and side effects
toxic and side effects, in words [9]: no obvious toxic and side effects
body weight of animals, in words [10]: no significant change in body weight
toxic and side effects, in words [10]: no obvious toxic and side effects
body weight of animals, in words [11]: no significant change in body weight
toxic and side effects, in words [11]: no obvious toxic and side effects
body weight of animals, in words [12]: no significant change in body weight
toxic and side effects, in words [12]: no obvious toxic and side effects
final weight ([12]; 0.75 mg/kg): 23.11 ± 0.61 g
final weight ([12]; 1.5 mg/kg): 22.87 ± 0.57 g
final weight ([12]; 3 mg/kg): 20.99 ± 0.66 g
body weight of animals, in words [13]: no significant change in body weight
toxic and side effects, in words [13]: no obvious toxic and side effects
final weight ([13]; 0.75 mg/kg): 23.09 ± 0.59 g
final weight ([13]; 1.5 mg/kg): 22.96 ± 0.59 g
final weight ([13]; 3 mg/kg): 23.16 ± 0.51 g
final weight ([14]; 0.75 mg/kg/time): 22.28 ± 1.75 g
final weight ([14]; 1.5 mg/kg/time): 20.21 ± 1.97 g
final weight ([14]; 3 mg/kg/time): 19.34 ± 1.13 g
body weight of animals, in words [14, 26]: no significant change in body weight
body weight of animals, in words [15]: no significant change in body weight
toxic and side effects, in words [15]: no obvious toxic and side effects
body weight of animals, in words [16]: no significant change in body weight
toxic and side effects, in words [16]: no obvious toxic and side effects
final weight ([17]; 0.75 mg/kg/time): 23.06 ± 0.64 g
final weight ([17]; 1.5 mg/kg/time): 23.03 ± 0.65 g
final weight ([17]; 3 mg/kg/time): 22.86 ± 0.65 g
body weight of animals, in words [17, 26]: no significant change in body weight
toxic and side effects, in words ([17]; mouse, in vivo): no obvious toxic and side effects
final weight ([18]; body weight of nude mice, 0.75 mg/kg/time, daily, tail vein injection): 22.88 ± 0.63 g
final weight ([18]; body weight of nude mice, 1.5 mg/kg/time, daily, tail vein injection): 23.21 ± 0.62 g
final weight ([18]; body weight of nude mice, 3 mg/kg/time, daily, tail vein injection): 22.99 ± 0.62 g
body weight of animals, in words [18, 26]: no significant change in body weight
toxic and side effects, in words ([18]; mouse, in vivo): no obvious toxic and side effects
toxic and side effects, in words [19]: no obvious toxic and side effects
final weight ([20]; 0.75 mg/kg/time): 22.98 ± 0.60 g
final weight ([20]; 1.5 mg/kg/time): 22.66 ± 0.61 g
final weight ([20]; 3 mg/kg/time): 23.23 ± 0.67 g
body weight of animals, in words [20, 26]: no significant change in body weight
body weight of animals, in words [21]: no significant change in body weight
toxic and side effects, in words [21]: no obvious toxic and side effects
final weight ([21]; 0.75 mg/kg): 22.90 ± 0.69 g
final weight ([21]; 1.5 mg/kg): 22.99 ± 0.62 g
final weight ([21]; 3 mg/kg): 20.94 ± 0.47 g
final weight ([22]; 0.75 mg/kg/time): 23.17 ± 0.58 g
final weight ([22]; 1.5 mg/kg/time): 22.88 ± 0.66 g
final weight ([22]; 3 mg/kg/time): 23.14 ± 0.54 g
body weight of animals, in words [22, 26]: no significant change in body weight
toxic and side effects, in words ([22]; mouse, in vivo): no obvious toxic and side effects
body weight of animals, in words [23]: no significant change in body weight
toxic and side effects, in words [23]: no obvious toxic and side effects
toxic and side effects, in words [24]: no obvious toxic and side effects
body weight of animals, in words [25]: no significant change in body weight
toxic and side effects, in words [25]: no obvious toxic and side effects

RGDGGGGFQPVLHLVALNSPLSGGMRGIRGADFQCFQQARAVGLAGTFRA [polypeptide II]
body weight of animals, in words [1]: no significant change in body weight
toxic and side effects, in words [1]: no obvious toxic and side effects
body weight of animals, in words [3]: no significant change in body weight
toxic and side effects, in words [3]: no obvious toxic and side effects
body weight of animals, in words [4]: no significant change in body weight
toxic and side effects, in words [4]: no obvious toxic and side effects
toxic and side effects, in words [5]: no obvious toxic and side effects
body weight of animals, in words [6]: no significant change in body weight
toxic and side effects, in words [6]: no obvious toxic and side effects
final weight ([6]; 0.75 mg/kg): 22.93 ± 0.46 g
final weight ([6]; 1.5 mg/kg): 22.95 ± 0.46 g
final weight ([6]; 3 mg/kg): 23.04 ± 0.55 g
body weight of animals, in words [7]: no significant change in body weight
body weight of animals, in words [8]: no significant change in body weight
toxic and side effects, in words [8]: no obvious toxic and side effects
body weight of animals, in words [9]: no significant change in body weight
toxic and side effects, in words [9]: no obvious toxic and side effects
body weight of animals, in words [10]: no significant change in body weight
toxic and side effects, in words [10]: no obvious toxic and side effects
body weight of animals, in words [11]: no significant change in body weight
toxic and side effects, in words [11]: no obvious toxic and side effects
body weight of animals, in words [12]: no significant change in body weight
toxic and side effects, in words [12]: no obvious toxic and side effects
final weight ([12]; 0.75 mg/kg): 22.85 ± 0.61 g
final weight ([12]; 1.5 mg/kg): 23.10 ± 0.61 g
final weight ([12]; 3 mg/kg): 22.99 ± 0.37 g
body weight of animals, in words [13]: no significant change in body weight
toxic and side effects, in words [13]: no obvious toxic and side effects
final weight ([13]; 0.75 mg/kg): 23.07 ± 0.50 g
final weight ([13]; 1.5 mg/kg): 23.32 ± 0.50 g
final weight ([13]; 3 mg/kg): 22.97 ± 0.65 g
body weight of animals, in words [15]: no significant change in body weight
toxic and side effects, in words [15]: no obvious toxic and side effects
body weight of animals, in words [16]: no significant change in body weight
toxic and side effects, in words [16]: no obvious toxic and side effects
body weight of animals, in words ([17]; mouse, in vivo): no significant change in body weight
toxic and side effects, in words ([17]; mouse, in vivo): no obvious toxic and side effects
body weight of animals, in words ([18]; mouse, in vivo): no significant change in body weight
toxic and side effects, in words ([18]; mouse, in vivo): no obvious toxic and side effects
final weight ([18]; mouse, in vivo, 0.75 mg/kg): 22.88 ± 0.70 g
final weight ([18]; mouse, in vivo, 1.5 mg/kg): 22.98 ± 0.60 g
final weight ([18]; mouse, in vivo, 3 mg/kg): 22.66 ± 0.61 g
body weight of animals, in words [19]: no significant change in body weight
toxic and side effects, in words [19]: no obvious toxic and side effects
body weight of animals, in words [21]: no significant change in body weight
toxic and side effects, in words [21]: no obvious toxic and side effects
final weight ([21]; 0.75 mg/kg): 22.95 ± 0.52 g
final weight ([21]; 1.5 mg/kg): 22.88 ± 0.52 g
final weight ([21]; 3 mg/kg): 23.24 ± 0.66 g
body weight of animals, in words ([22]; mouse, in vivo): no significant change in body weight
toxic and side effects, in words ([22]; mouse, in vivo): no obvious toxic and side effects
body weight of animals, in words [23]: no significant change in body weight
toxic and side effects, in words [23]: no obvious toxic and side effects
body weight of animals, in words [24]: no significant change in body weight
toxic and side effects, in words [24]: no obvious toxic and side effects
body weight of animals, in words [25]: no significant change in body weight
toxic and side effects, in words [25]: no obvious toxic and side effects
